Data as given in patent US20210369787A1, “ADIPOCYTE MEDIATED DELIVERY OF ANTICANCER THERAPEUTICS” (NORTH CAROLINA STATE UNIVERSITY, priority 2018, published 2021).

Experiments:
FABP4 [1] = assay: FABP4 amount in B16F10 cells after transwell co-culture, Western blot; assay type: cell-based, mouse
Experimental: (§1) For Western blot, flow cytometry, and adipokine profiling (R&D Systems catalog no. ARY013), 6 well transwell system was used with cancer cells cultured in the transwell insert and adipocytes in the bottom. Cells or medium were analyzed after co-culturing for 72 h. To determine the role of FABP4 during the crosstalk, 30 μM BMS309403 was added in the medium to block FABP4. Antibodies used for Western blot included β-actin (catalog no. sc-47778, Santa Cruz), FABP4 (catalog no. 701158, Thermo Fisher), PD-L1 (catalog no. ab205921, Abcam). PE channel was used to determine pDox fluorescence in adipocytes and cancer cells.

B16F10 cells [2] = assay: Transwell co-culture of loaded adipocytes with B16F10, MTT; assay type: cell-based, mouse
Experimental: Cytotoxicity of drug and fatty acid was determined by MTT assay in 96-well plate after 48 h. Tumor cell killing or promoting effect of drug or fatty acid loaded adipocytes was determined in a transwell system where adipocytes were seeded in the 24 well plate and tumor cells grew in the transwell insert. After culturing for 72 h, cell proliferation of cancer cells in the transwell insert was determined by MTT assay.
as §1

PD-L1 = PD-L1 expression of B16F10 in transwell system, Western blot; assay type: cell-based, mouse
Experimental: as §1

B16F10 cells [3] = assay: pDox uptake and transport from adipocytes to B16F10 in transwell, flow cytometry; assay type: cell-based, mouse
Experimental: as §1

FABP4 [4] = biological target: FABP4 (Homo sapiens, UniProt P15090); assay: Fluorescence polarization binding of Dox or pDox to FABP4
Experimental: Fluorescence polarization was measured using QuantaMaster 40 UV/VIS Steady State Spectrofluorometer (Photon Technology International). The dissociation constant (Kd) was calculated for each by fitting the observed polarization ([mP]) to a general equation for two state binding as previously described.2

[5] = system: 3T3-L1 cell-differentiated adipocytes; assay: Lipid accumulation in adipocytes, Oil Red O staining; assay type: cell-based; conditions: for lipid accumulation in adipocytes: added during 3T3-L1 differentiation, oil red staining
Experimental: Lipid accumulation in adipocytes was evaluated by Oil Red 0 staining and quantified by optical density measurement at 540 nm. Preadipocytes were cultured, differentiated, and drug encapsulated in 6-well transwell insert, and co-cultured with 5*10^5 pre-cultured B16F10 or fibroblasts in 6 well plate to determine drug release profiles, which was calculated according to drug amount remained in adipocytes. Concentration of free fatty acid in co-cultured medium was measured using Free Fatty Acid Quantitation Kit (Sigma-Aldrich, catalog no. MAK044). […] Then, 100 μL extraction solution (0.75 M HCl in isopropanol) was added and incubated at −20° C. overnight. The fluorescence of supernatant at 498(excitation)/591(emission) nm was measured after centrifugation at 20000 g for 15 min. The maintenance medium was changed three to four times for animal work.

FABP4 (Homo sapiens, UniProt P15090), sequence (P15090 whole entry, species assumed): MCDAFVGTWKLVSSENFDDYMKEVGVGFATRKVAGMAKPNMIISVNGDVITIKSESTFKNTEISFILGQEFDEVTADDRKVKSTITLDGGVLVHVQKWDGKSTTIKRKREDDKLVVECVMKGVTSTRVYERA

Row | SMILES | effect on adipocyte-induced rise of FABP4 in B16F10 cells (FABP4 [1]) | effect on cytotoxicity of pDox from adipocytes to B16F10 cells (B16F10 cells [2]; BMS309403 added to transwell medium (30 μM)) | effect on cell killing by pDox+RA@adipocytes (B16F10 cells [2]; FABP4 inhibitor in transwell medium) | effect on PD-L1 suppression by RA@adipocytes and CLA@adipocyte (PD-L1) | effect on uptake of pDox in adipocytes (B16F10 cells [3]; during pDox absorption) | effect on RA@adipocyte-promoted pDox uptake (B16F10 cells [3]; transwell co-culture) | effect on transportation of pDox from adipocytes to B16F10 cells (B16F10 cells [3]; transwell, flow cytometry) | specific binding to FABP4 (FABP4 [4]) | lipid accumulation in adipocytes [5] | effect on inhibition of lipid droplet formation by Dox and pDox ([5]; RA added during differentiation)
1 | CCc1c(-c2ccccc2)c(-c2ccccc2)nn1-c1ccccc1-c1cccc(OCC(=O)O)c1 [BMS309403] | inhibit | partially reversed | partially reversed | partially reversed | did not affect | inhibited | partially inhibited | – | – | –
2 | COc1cccc2c1C(=O)c1c(O)c3c(c(O)c1C2=O)C[C@@](O)(C(=O)CO)C[C@@H]3O[C@H]1C[C@H](N)[C@H](O)[C@H](C)O1 [Dox, doxorubicin] | – | – | – | – | – | – | – | almost no specific binding | significantly inhibited | –
3 | CCCCCC/C=C/C=C\CCCCCCCC(=O)O [RA, 9Z, 11E-conjugated linoleic acid] | – | – | – | – | – | – | – | – | enhance lipid accumulation | partially reversed
